# Test results reported in patent US7361371B2, “Extract of petasites japonicus having neuroprotective effect and antioxidant activity” (Industry & Acacemic Cooreration in Chungnam National …, priority 2003, dated 2008).
# Tests used:
# [1] = system: lipid peroxidation in the brain of a mouse; experiment: Inhibition of Fe2+/ascorbic acid-induced lipid peroxidation (TBARS) in mouse brain homogenate; assay type: biochemical; conditions: Fe2+ 0.2 mM / ascorbic acid 25 mM, 37° C., 30 minutes, TBARS at 533 nm
# Description: Concretely, the brain of an ICR male mouse (22.5±2.5 g, 6 to 8 weeks old) was removed and washed with 0.15 M KCl solution containing 2 mm EDTA. The washed brain was ground using a tissue homogenizer (Teflon pestle). To 1 ml of the ground brain, 1 ml of 8.1% SDS, 2 ml of 20% acetic acid and 1 ml of 0.75% thiobarbituric acid (TBA) were added. The resulting mixture was boiled, cooled in ice for 30 minutes and centrifuged at 14,000 rpm for 10 minutes to obtain the supernatant. To the supernatant, 1 ml of each of the various solvent fractions of Petasites japonicus from Example 1 was added and Fe^2+ 0.2 mM and ascorbic acid 25 mM were added. The resulting mixture was thoroughly mixed while stirring at 37° C. After 30 minutes, to the mixture, 15% trichloroacetic acid (TCA) and 0.75% TBA were added in the same volume as the mixture. The reaction was boiled for 15 minutes, stored in ice for 5 minutes and centrifuged at 3,000 rpm for 10 minutes to remove corpuscolates. The supernatant was taken and measured for absorption at 533 nm (Bidlack, W. T., and Tappel, A. L., Lipids, 1973, 8, 177-182). Malondialdehyde (Gutteridge, J. M. C., Analytical Biochemistry, 1975, 69, 518-526) produced by hydrolysis of 1,1,3,3,-tetraethoxypropane) was used for calibration.
# Asample: absorption of a mixture of brain hydrogenate, ascorbic acid/Fe^2+ and Petasites japonicus extract at 533 nm, […]
# [2] = Change in body weight and brain weight of mice
# Description: (§1) Male ICR mice (22.5±2.5 g, 6 to 8 weeks old) were freely fed with solid feed for experimental animals (SamYang Co. Korea) in a polycarbonate cage (5 animals per cage). The mice were bred under conditions including a temperature and a relative humidity maintained at 23±3° C. and 60±10%, respectively, a light-dark cycle of 12 hours and illumination of 150 to 200 Lux. Only the animals which had been judged to be healthy during the acclimation period were randomly assigned to groups for the experiment. The breeding and experiment of animals were performed according to Guide for care and use of laboratory animal (National Institutes of Health Guidelines, 1985, 85-23). The groups of mice were unspecifically grouped and the body weight was measured every day. […] After the KA injection, the behavioral change of the mice was monitored by the method of Kondo et al. (Journal of Cerebral Blood Flow and Metabolism, 1997, 17, 241-256). Also, on the next day after the KA injection, the brains were removed from the mice, frozen in liquid nitrogen and stored at −80° C. for 48 hours at maximum until used.
# [3] = system: ICR mice (KA-induced oxidative neurotoxicity); experiment: Fatality rate of mice after kainic acid (KA) injection; assay type: in vivo, mouse
# Description: KA, and KA and the butanol fraction of Petasites japonicus were administered and the fatality rate was measured.
# The fractions were subjected to the same procedures as described above to measure the fatality rate.
# glutathione (GSH) = assay type: in vivo, mouse; conditions: KA administered alone
# Description: About 0.2 g of brain tissue from each brain was put into cold 6% metaphosphoric acid solution and crushed using a cold ceramic percussion motor. The crushed solution was centrifuged at 4° C., 27,000 g for 20 minutes. The supernatant was taken. To 0.05 Ml of the supernatant, 0.39 Ml of 100 mM phosphate buffer (pH 7.4) containing 5 mM EDTA, 0.025 ml of 10 mM DTNB (5,5-dithiobis-(2-nitrobenzoic acid)) and 0.08 ml of 5 mM NADPH were added and equilibrated at 25° C. for 3 minutes. Then, 2 units of glutathione (GSH) reductase was added thereto to initiate a reaction. The formation of 2-nitro-5-thiobenzoic acid was monitored by measuring the adsorption at 412 nm using a UV/VIS spectrophotometer (Roberts, J. C. and Francetic, D. J., Analytical Biochemistry, 1993, 211, 183-187; Raymond, C. et al., Journal of Nutrition, 1995, 125, 3062-3070). The total GSH amount contained in a sample was determined from a standard curve constructed by plotting the adsorption at 412 nm versus the known amount of GSH. The amount of GSH was shown by an average±S.E.M of data obtained by performing the experiment using 4 to 8 mice 3 times.
# [4] = system: pyramidal cells in CA1 and CA3 sites of the hippocampus; experiment: Tissue biopsy: surviving nerve cells in hippocampus after KA; assay type: in vivo, mouse; conditions: brain removed on the next day after KA; butanol fraction pretreated
# Description: Also, the brain removed on the next day after the administration of KA was subjected to a tissue biopsy to examine damage of pyramidal cells in CA1 and CA3 sites of the hippocampus.
# [5] = system: lipid peroxidation in brain tissue; experiment: KA-induced lipid peroxidation (TBARS amount) in brain homogenate of treated mice; assay type: in vivo, mouse; conditions: KA alone, or pre-treatment with butanol fraction 400 mg/kg, Fraction I or Fraction II
# Description: Concretely, the brains were removed from mice
# Brain tissue from each brain was crushed in 0.25M sucrose solution and the crushed brain homogenate was measured for the TBARS amount contained therein.
# glutathione peroxidase = assay type: in vivo, mouse; conditions: KA alone or butanol fraction pre-administered; FIG. 6a
# [6] = system: ICR mice (neurotoxic behavior induced by KA); experiment: Neuronal behavior change (tail arch, tremor, seizure) after KA; assay type: in vivo, mouse; conditions: KA 44 mg/kg, fraction I or II 200 mg/kg
# Description: as §1
# [7] = KA 44 mg/kg, fraction I or II 200 mg/kg
# [8] = KA 50 mg/kg, butanol fraction 400 mg/kg
compound,measurement,setting,value
O=C1O[C@H]([C@@H](O)CO)C(O)=C1O [Ascorbic acid],IC50 (inhibition of lipid peroxidation),[1],790 µg/mL
"C=C(C)[C@H]1CN[C@H](C(=O)O)[C@H]1CC(=O)O [KA, kainic acid]",Body weight change,[2]; [7],0.39 ± 0.29 g
same,Brain weight,[2]; [7],0.327 ± 0.0098 g
same,Final body weight,[2]; [7],29.88 ± 0.86 g
same,Initial body weight,[2]; [7],29.49 ± 0.91 g
same,Body weight change,[2]; [8],0.95 ± 0.385 g
same,Brain weight,[2]; [8],0.346 ± 0.0038 g
same,Final body weight,[2]; [8],32.34 ± 0.58 g
same,Initial body weight,[2]; [8],31.39 ± 0.49 g
same,Fatality rate,"[3]; Exp. Group 1: KA 50 mg/kg intraperitoneal, butanol fraction 400 mg/kg oral once per day for 4 days before KA",54%
same,Fatality rate,"[3]; Exp. Group 2: KA 50 mg/kg intraperitoneal, butanol fraction 150 mg/kg oral once per day for 4 days before KA",63.6%
same,Fatality rate,[3]; [7],54%
same,Total GSH amount in the brain tissue,glutathione (GSH),20%
same,Surviving nerve cells in the CA1 site of the hippocampus,[4],18.5%
same,Surviving nerve cells in the CA3 site of the hippocampus,[4],8.9%
same,TBARS content of brain homogenate (in words),[5],increased
same,Glutathione peroxidase activity (in words),glutathione peroxidase,reduced
same,"Tail arch (upper value, unit not given)",[6]; stage 1,12.4 ± 4.7
same,Tail arch (value in brackets),[6]; stage 1,(100%)
same,"Tremor (upper value, unit not given)",[6]; stage 2,16.7 ± 6.1
same,Tremor (value in brackets),[6]; stage 2,(100%)
same,"Seizure (upper value, unit not given)",[6]; stage 3,18.9 ± 19.5
same,Seizure (value in brackets),[6]; stage 3,(100%)
